Results as given in PMC9115112, “A2B adenosine receptor antagonists rescue lymphocyte activity in adenosine-producing patient-derived cancer models” (Journal for Immunotherapy of Cancer, 2022).

Experiments:
[1] = system: autologous TILs and patient-derived sarcoma spheroids; test: Spheroid infiltration by autologous TILs (real-time imaging and flow cytometry); format: cell-based, human; details: antagonist 12 µM, 3 days, n=8 donors, not statistically significant
Procedure: Spheroids were prepared using patient-derived sarcoma cell lines. 1×10^4 cells were seeded per well in 96-well ultra-low attachment plate with DMEM-F12 media containing 20% FBS and 1% PS for 5 days. 3×10^4 CSFE-labeled autologous expanded TILs, at Effector:target ratio of 3:1, were added to the spheroid at day five with A2BAR antagonism treatment at 12 µM. After 3 days, spheroid was removed and split into two groups—IN and OUT. […] Spheroids were washed with PBS at least two times. GentleMACS tumor dissociation kit (Miltenyi Biotec) was used to digest the spheroids for FC analysis.
Brightfield and phase contrast images under 4X objective were acquired every 6 hours on IncuCyte S3 system (Essen BioScience). For breast cancer patient-derived spheroid culture, 1×10^4 cells per well were seeded with A2BAR antagonist at 12 µM treatment for 6 days real time imaging. For spheroid infiltration, after the addition of CSFE-labeled autologous expanded TILs and treatment with A2BAR antagonist at 12 µM, green fluorescence images were acquired for 3 days. All spheroid invasion analysis was performed using top hat segmentation with IncuCyte software.
Cell surface was stained with mouse monoclonal antihuman antibodies against CD3, CD4, CD8, CD45RA, CD56 and CD19 listed in online supplemental table 1. Cell surface antibodies and live/dead (L/D) marker were incubated with samples at 4°C for 20 min after washing two times with flow cytometry buffer containing 5% FBS in PBS. For spheroid infiltrated TIL phenotyping, digested IN and OUT spheroids were stained with cell surface marker and analyzed on NovoCyte (ACEA Bioscience) with the use of FlowJo software (Tree Star) by gating single cell based on forward and side scatters. A representative gating strategy for CD8 naïve T cells is shown in online supplemental figure 3A. Compensated flow cytometry standard (FCS) files with only live cells were concatenated for downstream tSNE analysis using the ‘cytofkit’ R package (https://github.com/JinmiaoChenLab/cytofkit).
Figure 6 Infiltration of TILs into autologous patient-derived sarcoma spheroids after A2BAR antagonist treatment. (A) Representative real-time imaging of spheroid TIL infiltration over 3 days under 4× objective. Green areas demarcate CFSE-labeled TILs infiltrated into the red boundary tumor spheroid. (B) Relative TIL infiltration into autologous spheroids (n=8 donors) measured by flow cytometer. Antagonist 12 µM was added with CSFE-labeled TILs after spheroid formation on day five. (C) Representative flow cytometry plot of CFSE positive TILs in CD73+ tumor spheroid. (D) tSNE analysis and (E) annotated pie chart of TILs within (IN) and outside of (OUT) the spheroids without treatment (n=8 donors, indicated within the pie chart). Wilcoxon Rank Sum test was performed to compare the various IN vs OUT adhesion markers. Expression of (F) CD3 T cells, (G) CD49a+ CD103+ among CD8 T cells and (H) CD69 MFI among CD4 T cells IN and OUT of the spheroids without treatment (n=8 donors). (I) Relative CD8/CD4 TIL ratio IN the spheroids. Differential expression of relative (J–L). CD49a+ CD103+ cells IN the spheroids (n=8 donors) of CD3, CD8, and CD4 TILs. Antagonist 12 µM was added for J–L. Outlier is presented as diamond shape and defined by Tukey’s rule, which is not included in statistical analysis. Box plots with minimum, first quartile, median, third quartile, and maximum are presented. Unpaired and non-parametric statistical analysis—Mann-Whitney test was performed against untreated control with *p<0.05, **p<0.01, ***p<0.001, and ****p<0.0001. CFSE, carboxyfluorescein succinimidyl ester; TIL, tumor infiltrating lymphocyte; tSNE, T-distributed stochastic neighboring embedding. TEXT PRINTED IN THE PICTURE: (C) ISAM-R56A: TILs 13.0 DOUBTS OF THE COPYIST ABOUT THIS PICTURE: Panel C, ISAM-R56A, TILs: the print is small, 13.0 could be 13.8 or 13.6 / Panel C also prints a gate label 'TILs 3.17' for the Untreated control. […]

[2] = system: healthy donor T cells (PBMCs) and NK cells; test: CFSE proliferation assay with exogenous adenosine; format: cell-based, human; details: exogenous adenosine 0.1 mM, antagonist 12 µM, 3 days (T) and 6 days (NK)
Procedure: Freshly isolated PBMCs and NK cells were stained with 5 µM FITC-conjugated carboxyfluorescein succinimidyl ester (CFSE, BioLegend) in phosphate-buffered saline (PBS) (Life Technologies) at room temperature for 5 min. CSFE stained cells were washed with flow cytometer buffer three times. CSFE-labeled healthy PBMCs and NK cells were cultured in 96-well plates with X-VIVO20% and 1% PS for 3 and 6 days, respectively. Healthy PBMCs were incubated with Human T-activator CD3/CD28 beads at 1:4 ratio (Thermo Fisher Scientific) and IL-2 (Novartis) at 100 IU/mL. Healthy donor NK cells were incubated with 1000 IU/mL IL-2 only. 2×10^5 PBMCs and 5×10^4 NK cells were counted for treatment with ADO (Sigma-Aldrich) and 12 μM of A2BAR antagonist at the same day.
Figure 3 Rescue of lymphocyte proliferation by of A2BAR antagonism. Relative proliferation of: (A) CD45RA- CD4 T cells, (B) CD45RA+ CD4 T cells, (C) CD45RA- CD8 T cells, (D) CD45RA+ CD8 T cells, and (E) NK cells, after incubation with exogenous adenosine 0.1 mM and A2BAR antagonist 12 µM for 3 (A–D) and 6 (E) days. (n=10 healthy donors) CD45RA expression differentiates naïve and effector T cells from central and effector memory T cells. Box plots with minimum, first quartile, median, third quartile, and maximum are presented. Unpaired and non-parametric statistical analysis—Mann-Whitney test was performed against untreated control with *p<0.05, **p<0.01, ***p<0.001, and ****p<0.0001. (F–J) Representative CFSE histogram on the corresponding lymphocyte subset. CFSE, carboxyfluorescein succinimidyl ester.

[3] = system: healthy donor T cells in MPNST patient-derived sarcoma spheroid; test: Proliferation assay with CD73-expressing patient-derived sarcoma (MPNST) spheroid; format: cell-based, human; details: antagonist 12 µM, 3 days, endogenous adenosine, n=5 healthy donors
Procedure: A malignant peripheral nerve sheath tumor (MPNST) patient-derived sarcoma cell line was used to grow spheroid by seeding 1×10^4 cells per well in a 96-well ultra-low attachment plate (Thermo Fisher Scientific) with DMEM-F12 media containing 20% FBS and 1% PS for 5 days. 1×10^5 CSFE-labeled healthy PBMCs, ratio of 10:1, were added to the CD73 expressing, adenosine-producing spheroid at day five. Similar to the proliferation assay with exogenous ADO, CD3/CD28 beads at 1:4 ratio and IL-2 at 100 IU/mL were added. A2BAR antagonism treatment at 12 μM was added at the same day.
Figure 5 Rescue of lymphocyte proliferation in sarcoma spheroids by A2BAR antagonism. Relative proliferation of: (A) CD45RA- CD4 T cells, (B) CD45RA+CD4 T cells, (C) CD45RA- CD8 T cells and (D) CD45RA+ CD8 T cells after antagonist 12 µM treatment for 3 days in MPNST patient-derived sarcoma spheroid. (n=5 healthy donors) Box plots with minimum, first quartile, median, third quartile, and maximum are presented. Unpaired and non-parametric statistical analysis—Mann-Whitney test was performed against untreated control with *p<0.05, **p<0.01, ***p<0.001, and ****p<0.0001. (E) Representative CSFE dilution of CD45RA+ CD8 T cells. CD45RA expression differentiates naïve and effector T cells from central and effector memory T cells. MPNST, malignant peripheral nerve sheath tumors; UPS, undifferentiated pleomorphic sarcoma.

[4] = system: CD4 and CD8 T cells (healthy donor PBMCs); test: IFNy and perforin cytokine production assay, with CD69 expression (flow cytometry); format: cell-based, human; details: antagonist 12 µM, exogenous adenosine
Procedure: Similar experimental setup was performed as the extracellular ADO uptake assay. Cells were harvested after 2 days of CD3/CD28 bead stimulation before treatment with PMA/ionomycin (Sigma Aldrich) and golgi-inhibitors (BD biosciences). After 3 hours of subsequent incubation, intracellular staining was performed for IFNy and perforin (online supplemental table 1).
(§1) Figure 4 Rescue of lymphocyte proinflammatory cytokine production IFNy and perforin by A2BAR antagonism. (A,B) Inhibition of extracellular adenosine uptake via phosphorylated-AMP activated protein kinase (pAMPK) staining (n=7 healthy donors). Production of proinflammatory cytokines—(C,D) IFNy and (E) perforin in CD4 (n=5 healthy donors) and CD8 (n=6 healthy donors) T cells. Expression of CD69 adhesion molecule in (F). CD4 (n=7 healthy donors) and (G) CD8 (n=4 healthy donors) T cells. A2BAR antagonist 12 µM was added. Outlier is presented as diamond shape and defined by Tukey’s rule, which is not included in statistical analysis. Box plots with minimum, first quartile, median, third quartile, and maximum are presented. Normalized fold change is based on percent values compared with untreated controls. Unpaired and non-parametric statistical analysis—Mann-Whitney test was performed against untreated control with *p<0.05, **p<0.01, ***p<0.001, and ****p<0.0001.

[5] = molecular target: T1, hA2B (A2BAR) (Homo sapiens, UniProt P29275); test: cAMP assay, NECA-stimulated, HEK-293 cells with transfected A2BAR; format: cell-based; details: n=3, read-out: Kb hA2B (cAMP production)
T1 construct: expressed in transfected cells; host or cells: HEK-293
T1 sequence (P29275 1-332): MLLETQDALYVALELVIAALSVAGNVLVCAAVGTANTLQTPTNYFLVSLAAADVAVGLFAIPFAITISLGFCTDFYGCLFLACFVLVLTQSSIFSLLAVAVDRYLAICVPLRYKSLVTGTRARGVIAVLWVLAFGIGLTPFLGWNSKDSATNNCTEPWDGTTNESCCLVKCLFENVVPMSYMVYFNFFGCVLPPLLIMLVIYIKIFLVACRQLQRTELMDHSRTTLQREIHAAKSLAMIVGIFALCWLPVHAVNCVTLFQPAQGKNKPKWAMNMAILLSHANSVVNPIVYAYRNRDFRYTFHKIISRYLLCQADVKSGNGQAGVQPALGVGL
Procedure: Assays were performed in transfected A2BAR using a cyclic AMP (cAMP) enzyme immunoassay kit (Amersham Biosciences) following previously described protocols.[28 30] HEK-293 cells were seeded (10,000 cells/well) in 96-well culture plates and incubated at 37°C in an atmosphere with 5% CO2 in Eagle’s Medium Nutrient Mixture F-12 (EMEM F-12), containing 10% fetal calf serum (FCS) and 1% L-Glutamine. Cells were washed three times with 200 µL assay medium (EMEM-F12 and 25 mM HEPES pH=7.4) and pre-incubated with assay medium containing 30 µM rolipram and test compounds at 37°C for 15 min. Ten µM NECA was incubated for 15 min at 37°C (total incubation time 30 min). Reaction was stopped with lysis buffer supplied in the kit and the enzyme immunoassay was carried out for detection of intracellular cAMP at 450 nm in an Ultra Evolution detector (Tecan). The dose-response curve of NECA-elicited cAMP formation was used to determine the initial choice of A2BAR antagonist concentration (online supplemental figure 2).

[6] = system: pAMPK in CD4 and CD8 T cells; test: Extracellular ADO uptake assay via pAMPK staining; format: cell-based, human; details: antagonist 12 µM, 50 µM exogenous adenosine, n=7 healthy donors
Procedure: Experimental setup was adopted from a previous study whereby AR antagonist was added to pretreat cells before exogenous adenosine treatment for intracellular and cytokine staining.[37] In brief, PBMCs were treated with 12 µM of A2BAR antagonists for 90 min before the addition of 50 µM of adenosine for 2 hours. Cells were harvested after 3 hours of CD3/CD28 bead stimulation before intracellular staining with phosphor-AMPK (Thr183, Thr172) rabbit primary antibody (Thermo Fisher Scientific) and antirabbit secondary antibody (BD biosciences).
as §1

Structure (SMILES)	Median increased TIL infiltration vs untreated [1] [%]	Rescue of lymphocyte (T and NK cell) proliferation [2]	Rescue of naïve and effector (CD45RA+) CD8 T cell proliferation in adenosine-producing sarcoma spheroids [3]	IFNy production by T cells on adenosine suppression (subset not given) [4]	Perforin production by CD8 T cells on adenosine suppression [4]	Kb [5] [nM]	pAMPK (extracellular ADO uptake) in CD4 T cells [6]
Cc1cc(-c2nnc(N)nc2-c2ccc(F)cc2)cc(Cl)n1 [AZD-4635, reference compound]	20	did not restore the proliferation	–	–	–	–	–
CC1=C(C(=O)OC(C)C)C(c2ccco2)NC(=S)N1 (stereo not shown) [SY1AF-30]	–	None of the other A2BAR antagonists (SY1AF–30, SY1AF–80 and SY1KO–24) had any measurable impact	significantly rescued	significantly improved	significantly improved	4.72	–
CCOC(=O)C1=C(C)NC(=O)NC1c1ccsc1 (stereo not shown) [SY1AF-80]	–	None of the other A2BAR antagonists (SY1AF–30, SY1AF–80 and SY1KO–24) had any measurable impact	significantly rescued	–	–	25.2	significantly inhibited ADO uptake
CC1=C(C(=O)OC(C)C)C(c2ccco2)NC(=NC#N)N1 (stereo not shown) [SY1KO-24]	–	None of the other A2BAR antagonists (SY1AF–30, SY1AF–80 and SY1KO–24) had any measurable impact	–	–	–	116	–
